Data: patent US7425638B2, “Cis-imidazolines” (Hoffmann-La Roche Inc., priority 2003, dated 2008)

biological target: recombinant GST-tagged MDM2 / p53 peptide (Homo sapiens, UniProt Q00987); test: HTRF assay of inhibition of the p53-MDM2 interaction; format: binding; details: GST-MDM2 and biotinylated p53 peptide, 37° C. 1 h
Description: The ability of the compounds to inhibit the interaction between p53 and MDM2 proteins was measured by an HTRF (homogeneous time-resolved fluorescence) assay in which recombinant GST-tagged MDM2 binds to a peptide that resembles the MDM2-interacting region of p53 (Lane et al.). Binding of GST-MDM2 protein and p53-peptide (biotinylated on its N-terminal end) is registered by the FRET (fluorescence resonance energy transfer) between Europium (Eu)-labeled anti-GST antibody and streptavidin-conjugated Allophycocyanin (APC).
Test is performed in black flat-bottom 384-well plates (Costar) in a total volume of […] containing:90 nM biotinylate peptide, 160 ng/ml GST-MDM2, 20 nM streptavidin-APC (PerkinElmerWallac), 2 nM Eu-labeled anti-GST-antibody (PerkinElmerWallac), 0.2% bovine serum albumin (BSA), 1 mM dithiothreitol (DTT) and 20 mM […] (TBS) buffer as follows: Add 10 uL of GST-MDM2 (640 ng/ml working solution) in reaction buffer to each well. Add 10 uL diluted compounds (1:5 dilution in reaction buffer) to each well, mix by shaking. Add 20 uL biotinylated p53 peptide (180 nM working solution) in reaction buffer to each well and mix on shaker. Incubate at 37° C. for 1 h. Add 20 uL streptavidin-APC and Eu-anti-GST antibody mixture (6 nM Eu-anti-GST and 60 nM streptavidin-APC working solution) in TBS buffer with 0.2% BSA, shake at room temperature for 30 minutes and read using a TRF-capable plate reader at 665 and 615 nm (Victor 5, Perkin ElmerWallac). If not specified, the reagents were purchased from Sigma Chemical Co.

Sequence of recombinant GST-tagged MDM2 / p53 peptide (Q00987 whole entry): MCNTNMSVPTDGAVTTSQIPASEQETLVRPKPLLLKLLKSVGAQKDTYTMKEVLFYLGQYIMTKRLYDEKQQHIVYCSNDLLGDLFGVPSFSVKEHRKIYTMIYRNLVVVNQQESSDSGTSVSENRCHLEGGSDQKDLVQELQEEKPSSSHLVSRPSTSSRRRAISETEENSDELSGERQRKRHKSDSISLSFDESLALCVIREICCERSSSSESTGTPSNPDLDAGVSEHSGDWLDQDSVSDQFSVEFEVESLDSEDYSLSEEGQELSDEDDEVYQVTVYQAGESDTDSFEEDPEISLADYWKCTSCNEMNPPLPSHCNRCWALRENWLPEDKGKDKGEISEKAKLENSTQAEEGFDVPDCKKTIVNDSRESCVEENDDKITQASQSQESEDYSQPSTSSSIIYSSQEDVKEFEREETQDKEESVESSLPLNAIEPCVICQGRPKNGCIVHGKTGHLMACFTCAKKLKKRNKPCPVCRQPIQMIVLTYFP

Row | SMILES | IC50 [nM]
1 | CCOc1cc(C(F)(F)F)ccc1C1=NC(c2ccc(Cl)cc2)C(c2ccc(Cl)cc2)N1C(=O)N1CCN(S(=O)(=O)C(C)C)CC1 (centres unmarked) [Example 6, [4,5-Bis-(4-chloro-phenyl)-2-(2-ethoxy-4-trifluoromethyl-phenyl)-4,5-dihydro-imidazol-1-yl]-[4-(propane-2-sulfonyl)-piperazin-1-yl]-methanone] | 100
2 | CCOc1cc(C(F)(F)F)ccc1C1=NC(c2ccc(Cl)cc2)C(c2ccc(Cl)cc2)N1C(=O)N1CCC(n2c(=O)[nH]c3ccccc32)CC1 (centres unmarked) [Example 26, 1-{1-[4,5-Bis-(4-chloro-phenyl)-2-(2-ethoxy-4-trifluoromethyl-phenyl)-4,5-dihydro-imidazole-1-carbonyl]-piperidin-4-yl}-1,3-dihydro-benzoimidazol-2-one] | 800
3 | CCOc1cc(C(F)(F)F)ccc1C1=NC(c2ccc(Cl)cc2)C(c2ccc(Cl)cc2)N1C(=O)N(C)c1ccccn1 (centres unmarked) [Example 36, 4,5-Bis-(4-chloro-phenyl)-2-(2-ethoxy-4-trifluoromethyl-phenyl)-4,5-dihydro-imidazole-1-carboxylic acid methyl-pyridin-2-yl-amide] | 4260
4 | CCOc1cc(C(F)(F)F)ccc1C1=NC(c2ccc(Cl)cc2)C(c2ccc(Cl)cc2)N1C(=O)N1CCC(C(=O)OC)CC1 (centres unmarked) [Example 16, 1-[4,5-Bis-(4-chloro-phenyl)-2-(2-ethoxy-4-trifluoromethyl-phenyl)-4,5-dihydro-imidazole-1-carbonyl]-piperidine-4-carboxylic acid methyl ester] | 1740
5 | CCOc1cc(C(F)(F)F)ccc1C1=NC(c2ccc(Cl)cc2)C(c2ccc(Cl)cc2)N1C(=O)N1CCC(NCC(=O)N(C)CCC#N)CC1 (centres unmarked) [Example 176, 2-{1-[4,5-Bis-(4-chloro-phenyl)-2-(2-ethoxy-4-trifluoromethyl-phenyl)-4,5-dihydro-imidazole-1-carbonyl]-piperidin-4-ylamino}-N-(2-cyano-ethyl)-N-methyl-acetamide] | 21
